Columns and labels:
[1] = target: TGFβR2 (Homo sapiens, UniProt P37173); assay: Biochemical TGFβR2 assay (LanthaScreen Europium Kinase Binding Assay); details: geometric mean; tracer displacement, five concentrations 1.0-0.0039 μM in duplicate; read-out: TGFBR2 GMean: IC50 (μM) (Biochemical Assay)
Description: The IC50 of certain compounds in this disclosure against TGFβR2 was conducted under contract at Thermo Fisher Scientific, Life Sciences Solutions as part of their SelectScreen™ profiling service. The TGFβR2 assay used the LanthaScreen® Europium Kinase Binding Assay. Binding of an Alexa Fluor® conjugate Tracer 199 (100 nM) to TGFβR2 (5 nM) was detected by addition of a Eu-labeled anti-tag antibody (5 nM) in Kinase Buffer A (50 mM HEPES pH 7.5, 0.01% BRIJ-35, 10 mM MgCl2, 1 mM EGTA) and 1% final DMSO. […] The percent inhibition was calculated from the emission ratio of Alexa Fluor® and Europium as documented by Thermo Fisher (www.thermofisher.com/kinaseprofiling). The IC50 of certain compounds in this disclosure was determined by testing a dilution series of the compound in duplicate at five concentrations (1.0, 0.25, 0.062, 0.015 and 0.0039 μM) by fitting the inhibition data with a sigmoidal curve fit model.
Table II provides data indicating TGFBR2 biochemical inhibitory activities for exemplary compounds as described herein.

[2] = target: T1, FLT3 D835Y (Homo sapiens, UniProt P36888, D835Y); assay: Biochemical FLT3 D835Y assay; details: geometric mean; assay as in US2017/0267660; read-out: FLT3 D835Y GMean: IC50 (μM) (Biochemical Assay)
T1 sequence (P36888 27-993 D835Y): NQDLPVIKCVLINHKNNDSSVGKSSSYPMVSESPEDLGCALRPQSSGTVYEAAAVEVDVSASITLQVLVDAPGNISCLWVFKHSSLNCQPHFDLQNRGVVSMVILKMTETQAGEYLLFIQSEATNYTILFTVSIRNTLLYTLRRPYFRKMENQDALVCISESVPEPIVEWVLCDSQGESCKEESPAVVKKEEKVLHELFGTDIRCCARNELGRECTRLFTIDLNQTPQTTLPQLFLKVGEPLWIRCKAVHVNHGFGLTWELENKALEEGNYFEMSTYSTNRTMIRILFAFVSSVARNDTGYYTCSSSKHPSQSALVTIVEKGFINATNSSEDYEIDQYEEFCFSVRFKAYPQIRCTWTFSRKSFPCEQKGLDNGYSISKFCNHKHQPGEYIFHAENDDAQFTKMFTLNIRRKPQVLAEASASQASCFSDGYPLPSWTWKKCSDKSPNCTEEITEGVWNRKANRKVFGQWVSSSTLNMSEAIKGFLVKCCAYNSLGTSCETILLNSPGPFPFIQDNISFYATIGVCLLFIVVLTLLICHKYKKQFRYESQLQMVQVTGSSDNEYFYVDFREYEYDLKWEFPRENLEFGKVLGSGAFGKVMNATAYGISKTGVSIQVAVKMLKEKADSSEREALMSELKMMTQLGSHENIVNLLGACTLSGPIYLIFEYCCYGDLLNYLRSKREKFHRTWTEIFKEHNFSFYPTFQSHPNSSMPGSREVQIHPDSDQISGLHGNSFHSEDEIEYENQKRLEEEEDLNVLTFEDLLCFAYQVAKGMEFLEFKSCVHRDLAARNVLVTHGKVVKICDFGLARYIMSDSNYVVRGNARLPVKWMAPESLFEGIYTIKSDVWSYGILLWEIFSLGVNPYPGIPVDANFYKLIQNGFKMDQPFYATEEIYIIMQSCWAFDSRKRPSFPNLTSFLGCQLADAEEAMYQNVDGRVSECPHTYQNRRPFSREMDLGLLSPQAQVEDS
Description: FLT3 D835Y assays were conducted on certain compounds of this disclosure as described in U.S. Patent Publication No. US2017/0267660.
Table II provides data indicating FLT3 D835Y biochemical inhibitory activities for exemplary compounds as described herein.

[3] = test system: quizartinib resistance-causing mutants of FLT3-ITD; details: all identified quizartinib resistance-causing mutants and other mutant isoforms (Smith et al.); cited from earlier work

TGFβR2, sequence (P37173 23-567): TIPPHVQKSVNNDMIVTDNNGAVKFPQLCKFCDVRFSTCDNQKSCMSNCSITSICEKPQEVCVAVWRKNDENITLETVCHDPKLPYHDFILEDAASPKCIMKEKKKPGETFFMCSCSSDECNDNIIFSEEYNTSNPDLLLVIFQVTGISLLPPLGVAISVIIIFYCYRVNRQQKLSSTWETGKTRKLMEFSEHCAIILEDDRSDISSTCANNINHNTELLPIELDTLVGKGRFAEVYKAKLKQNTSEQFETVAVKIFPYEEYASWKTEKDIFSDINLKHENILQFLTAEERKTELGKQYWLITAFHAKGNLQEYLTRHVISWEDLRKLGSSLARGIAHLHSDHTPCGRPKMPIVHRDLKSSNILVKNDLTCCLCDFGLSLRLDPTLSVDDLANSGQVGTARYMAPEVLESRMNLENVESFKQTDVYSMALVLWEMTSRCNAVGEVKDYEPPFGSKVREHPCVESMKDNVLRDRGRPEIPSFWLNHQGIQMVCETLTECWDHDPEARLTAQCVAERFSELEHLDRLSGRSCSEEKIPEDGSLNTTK

SMILES	IC50 [1]	IC50 [2]	activity against quizartinib resistance-causing mutants [3]
O=C(NC1CS(=O)(=O)C1)c1cccc(-c2cnc3[nH]c(-c4cnn(C(F)F)c4)cc3c2)n1 [P-010, 6-(2-(1-(difluoromethyl)-1H-pyrazol-4-yl)-1H-pyrrolo[2,3-b]pyridin-5-yl)-N-(1,1-dioxidothietan-3-yl)picolinamide]	0.0001 to 10 µM	0.0001 to 10 µM	–
CC(C)(C#N)NC(=O)c1cccc(-c2cnc3[nH]c(-c4cnn(C(F)F)c4)c(F)c3c2)n1 [P-004, N-(1-cyano-1-methyl-ethyl)-6-[2-[1-(difluoromethyl)pyrazol-4-yl]-3-fluoro-1H-pyrrolo[2,3-b]pyridin-5-yl]pyridine-2-carboxamide]	0.0001 to 10 µM	0.0001 to 10 µM	–
CC(C)(C#N)NC(=O)c1cccc(-c2cnc3[nH]c(-c4cnn(CC#N)c4)cc3c2)n1 [P-001, 6-(2-(1-(cyanomethyl)-1H-pyrazol-4-yl)-1H-pyrrolo[2,3-b]pyridin-5-yl)-N-(2-cyanopropan-2-yl)picolinamide]	0.0001 to 10 µM	0.0001 to 10 µM	–
O=C(Nc1ccn[nH]1)c1cccc(-c2cnc3[nH]c(-c4cnn(C(F)F)c4)cc3c2)n1 [P-018, 6-(2-(1-(difluoromethyl)-1H-pyrazol-4-yl)-1H-pyrrolo[2,3-b]pyridin-5-yl)-N-(1H-pyrazol-5-yl)picolinamide]	0.0001 to 10 µM	0.0001 to 10 µM	–
O=C(NCC1(O)CCC1)c1cccc(-c2cnc3[nH]c(-c4cnn(C(F)F)c4)cc3c2)n1 [P-013, 6-(2-(1-(difluoromethyl)-1H-pyrazol-4-yl)-1H-pyrrolo[2,3-b]pyridin-5-yl)-N-((1-hydroxycyclobutyl)methyl)picolinamide]	0.0001 to 10 µM	0.0001 to 10 µM	–
N#CC1(NC(=O)c2cccc(-c3cnc4[nH]c(-c5cnn(C(F)F)c5)cc4c3)n2)CCC1 [P-007, N-(1-cyanocyclobutyl)-6-(2-(1-(difluoromethyl)-1H-pyrazol-4-yl)-1H-pyrrolo[2,3-b]pyridin-5-yl)picolinamide]	0.0001 to 10 µM	0.0001 to 10 µM	–
CN1CC(NC(=O)c2cccc(-c3cnc4[nH]c(-c5cnn(C(F)F)c5)cc4c3)n2)C1 [P-015, 6-(2-(1-(difluoromethyl)-1H-pyrazol-4-yl)-1H-pyrrolo[2,3-b]pyridin-5-yl)-N-(1-methylazetidin-3-yl)picolinamide]	0.0001 to 10 µM	0.0001 to 10 µM	–
N#CC1(CNC(=O)c2cccc(-c3cnc4[nH]c(-c5cnn(C(F)F)c5)cc4c3)n2)CC1 [P-008, N-((1-cyanocyclopropyl)methyl)-6-(2-(1-(difluoromethyl)-1H-pyrazol-4-yl)-1H-pyrrolo[2,3-b]pyridin-5-yl)picolinamide]	0.0001 to 10 µM	0.0001 to 10 µM	–
CC(C)(O)CNC(=O)c1cccc(-c2cnc3[nH]c(-c4cnn(C(F)F)c4)cc3c2)n1 [P-011, 6-(2-(1-(difluoromethyl)-1H-pyrazol-4-yl)-1H-pyrrolo[2,3-b]pyridin-5-yl)-N-(2-hydroxy-2-methylpropyl)picolinamide]	0.0001 to 10 µM	0.0001 to 10 µM	–
O=C(Nc1nnc[nH]1)c1cccc(-c2cnc3[nH]c(-c4cnn(C(F)F)c4)cc3c2)n1 [P-019, 6-(2-(1-(difluoromethyl)-1H-pyrazol-4-yl)-1H-pyrrolo[2,3-b]pyridin-5-yl)-N-(4H-1,2,4-triazol-3-yl)picolinamide]	0.0001 to 10 µM	0.0001 to 10 µM	–
O=C(NC1COC1)c1cccc(-c2cnc3[nH]c(-c4cnn(C(F)F)c4)cc3c2)n1 [P-014, 6-(2-(1-(difluoromethyl)-1H-pyrazol-4-yl)-1H-pyrrolo[2,3-b]pyridin-5-yl)-N-(oxetan-3-yl)picolinamide]	0.0001 to 10 µM	0.0001 to 10 µM	–
CC(C)(C#N)NC(=O)c1cccc(-c2cnc3[nH]c(-c4cnn(C(F)F)c4)c(Br)c3c2)n1 [P-005, 6-[3-bromo-2-[1-(difluoromethyl)pyrazol-4-yl]-1H-pyrrolo[2,3-b]pyridin-5-yl]-N-(1-cyano-1-methyl-ethyl)pyridine-2-carboxamide]	0.0001 to 10 µM	0.0001 to 10 µM	–
CC(C)(C#N)NC(=O)c1cccc(-c2cnc3[nH]c(-c4c(F)nn(C(F)F)c4F)c(F)c3c2)n1 [P-003, N-(1-cyano-1-methyl-ethyl)-6-[2-[1-(difluoromethyl)-3,5-difluoro-pyrazol-4-yl]-3-fluoro-1H-pyrrolo[2,3-b]pyridin-5-yl]pyridine-2-carboxamide]	0.0001 to 10 µM	0.0001 to 10 µM	–
CC(C)(C#N)NC(=O)c1cc(F)cc(-c2cnc3[nH]c(-c4cnn(C(F)F)c4)cc3c2)n1 [P-024, N-(2-cyanopropan-2-yl)-6-(2-(1-(difluoromethyl)-1H-pyrazol-4-yl)-1H-pyrrolo[2,3-b]pyridin-5-yl)-4-fluoropicolinamide]	0.0001 to 10 µM	0.0001 to 10 µM	–
O=C(Nc1ncc[nH]1)c1cccc(-c2cnc3[nH]c(-c4cnn(C(F)F)c4)cc3c2)n1 [P-016, 6-(2-(1-(difluoromethyl)-1H-pyrazol-4-yl)-1H-pyrrolo[2,3-b]pyridin-5-yl)-N-(1H-imidazol-2-yl)picolinamide]	0.0001 to 10 µM	0.0001 to 10 µM	–
N#CC1(NC(=O)c2cccc(-c3cnc4[nH]c(-c5cnn(C(F)F)c5)cc4c3)n2)CC1 [P-006, N-(1-cyanocyclopropyl)-6-(2-(1-(difluoromethyl)-1H-pyrazol-4-yl)-1H-pyrrolo[2,3-b]pyridin-5-yl)picolinamide]	0.0001 to 10 µM	0.0001 to 10 µM	–
CNC(=O)c1cc(Oc2ccc(NC(=O)Nc3ccc(Cl)c(C(F)(F)F)c3)cc2)ccn1 [sorafenib]	–	–	ineffective
CC(C)(C#N)NC(=O)c1cncc(-c2cnc3[nH]c(-c4cnn(C(F)F)c4)cc3c2)n1 [P-021, N-(2-cyanopropan-2-yl)-6-(2-(1-(difluoromethyl)-1H-pyrazol-4-yl)-1H-pyrrolo[2,3-b]pyridin-5-yl)pyrazine-2-carboxamide]	0.0001 to 10 µM	0.0001 to 10 µM	–
O=C(Nc1cnc[nH]1)c1cccc(-c2cnc3[nH]c(-c4cnn(C(F)F)c4)cc3c2)n1 [P-017, 6-(2-(1-(difluoromethyl)-1H-pyrazol-4-yl)-1H-pyrrolo[2,3-b]pyridin-5-yl)-N-(1H-imidazol-5-yl)picolinamide]	0.0001 to 10 µM	0.0001 to 10 µM	–
O=C(NCC1(O)CC1)c1cccc(-c2cnc3[nH]c(-c4cnn(C(F)F)c4)cc3c2)n1 [P-012, 6-(2-(1-(difluoromethyl)-1H-pyrazol-4-yl)-1H-pyrrolo[2,3-b]pyridin-5-yl)-N-((1-hydroxycyclopropyl)methyl)picolinamide]	0.0001 to 10 µM	0.0001 to 10 µM	–
O=C(NC1CC(O)C1)c1cccc(-c2cnc3[nH]c(-c4cnn(C(F)F)c4)cc3c2)n1 (centres unmarked) [P-009, 6-(2-(1-(difluoromethyl)-1H-pyrazol-4-yl)-1H-pyrrolo[2,3-b]pyridin-5-yl)-N-(3-hydroxycyclobutyl)picolinamide]	0.0001 to 10 µM	0.0001 to 10 µM	–
